Reference: patent publication US20240190922A1, “PEPTIDE PLATINUM COMPLEXES AND METHODS OF USE THEREOF” (priority 2020, published 2024)
Ends that are not written are not given here.

Test system: A375 cells (human skin melanoma derived cell line)
Test: A375 cell killing assay (CellTiter-Glo luminescence)
Type: cell-based
Conditions: for potency relative to Onco-001 (times more potent): from EC50 values
Experimental: Alternatively, A375 cells (human skin melanoma derived cell line) are harvested by centrifugation and then re-suspended in a culture medium. The cell density is adjusted, and cell suspension transferred to the assay multi-well plate. The marginal wells are filled with PBS. The assay plate is incubated in a cell incubator for about 16˜18 hours. Working solutions of test compounds and positive control at various concentrations are added to corresponding wells of the plate. The assay plate is then incubated for an additional 72 hours in a 37° C./5% CO2 incubator. After incubation, the working solution of CellTiter-Glo® reagent is added to the corresponding wells and shaken on an orbital shaker. The assay plate is incubated at room temperature for a short while to stabilize the luminescent signal. Luminescence signals are measured by a luminescence plate reader, such as PheraStar (BMG). Data are stored on a local computer or computer server for analysis.

Onco -005 (Ac-GPSRVGG; not fully specified (C-terminus); also: gamma-carboxyglutamic acid, no place given)
potency relative to Onco-001 (times more potent): approximately 15 ×

cis-bis[AcGPSRVGGCNH2][trans-(1R,2R)-1,2-diaminocyclohexane]platinum(II) [Onco-001]
EC50 (72 hours incubation, CellTiter-Glo): ~130 µM

Onco-003: formula (I): R1 and R2 form trans-R,R-1,2-diaminocyclohexane, R3 and R4 joined by bidentate peptide AcGPSRVGGCD
potency relative to Onco-001 (times more potent): approximately 15 ×
